These results are taken from patent US20090012103A1, “SUBSTITUTED HETEROCYCLIC COMPOUNDS” (priority 2007, published 2009).

Data set [1] addresses T1, wild-type human cardiac sodium channel, hNav1.5 (Homo sapiens, UniProt Q14524). Put plainly: Peak INa screening assay (tonic block TB and use-dependent block UDB of peak sodium current). The format is cell-based. As to conditions: compound at 10 μM. The protocol: The late sodium current (Late INa) and peak sodium current (Peak INa) assays are performed on an automated electrophysiology platform, PatchXpress 7000A (MDS Analytical Technologies, Sunnyvale, Calif.), which uses the whole cell patch clamp technique to measure currents through the cell membrane of up to 16 cells at a time. The assay uses an HEK293 (human embryonic kidney) cell line heterologously expressing the wild-type human cardiac sodium channel, hNav1.5, purchased from Millipore (Billerica, Mass.). No beta subunits were coexpressed with the Na channel alpha subunit. […] Experiments are carried out at 24-27° C.
For both the Late INa and Peak INa assays, series resistance compensation is set to 50% and whole-cell compensation is performed automatically. […] Currents through open sodium channels are automatically recorded and stored in the DataXpress2 database (MDS Analytical Technologies, Sunnyvale, Calif.). Analysis is performed using DataXpress2 analysis software and data are compiled in Excel.
Compound stocks are routinely made in glass vials to 10 mM in dimethyl sulfoxide (DMSO). In some cases, when compounds are not soluble in DMSO, they are made in 100% ethanol. Stocks are sonicated as necessary. The extracellular solution for screening Late INa is composed of: 140 mM NaCl, 4 mM KCl, 1.8 mM CaCl2, 0.75 mM MgCl2, and 5 mM HEPES with pH adjusted to 7.4 using NaOH. The extracellular solution for screening Peak INa is composed of: 20 mM NaCl, 120 mM N-methyl-D glucamine, 4 mM KCl, 1.8 mM CaCl2, 0.75 mM MgCl2, and 5 mM HEPES with pH adjusted to 7.4 using HCl. The intracellular solution used to perfuse the inside of the cells for both the Late INa and Peak INa assays contains: 120 mM CsF, 20 mM CsCl, 5 mM EGTA, 5 mM HEPES and pH adjusted to 7.4 with CsOH. Compounds are diluted in extracellular solution to 10 μM in glass vials and then transferred to glass well plates before robotic addition to the cells. The 0 Na extracellular solution used at the end of each experiment for the Late INa and Peak INa assays to measure baseline current contains: 140 mM N-methyl-D-glucamine; 4 mM KCl; 1.8 mM CaCl2; 0.75 mM MgCl2; 5 mM HEPES and pH was adjusted to 7.4 with HCl.
Compounds were also evaluated for their effect in several other assays, including their effect on Peak INa. In some cases, the effect on Peak INa was measured using data from the Late INa assay. […] Since the peak INa can be very large, introducing artifacts in the recording, the concentration of Na^+ in the bath is reduced to 20 mM and a nonpermeant cation is added to compensate for the Na^+ that was omitted from the standard extracellular solution (see above). The peak INa assay uses a holding potential of −100 mV and a 20 ms test pulse to 0 mV to activate the channel. As in the Late INa assay, stepping the voltage to 0 mV causes a rapid increase in negative Na current through hNav1.5 that inactivates within a few ms. No late INa activator is added for the peak assay.
For the separate peak INa assay, both tonic (TB) block and use-dependent (UDB) block of peak inward sodium current by 10 μM compound are determined. TB is block of the channel in the resting state, before the channel opens. TB is simulated in this assay by stimulating the channel to open at a low frequency (0.1 Hz). This is done in order to measure the control current amplitude and monitor current rundown, enabling correction for rundown in the calculation of percent block for TB.

The target of data set [2] is T1, wild-type human cardiac sodium channel, hNav1.5. Put plainly: Late INa screening assay (late sodium current, PatchXpress whole cell patch clamp). The format is cell-based. As to conditions: compound at 10 μM; read-out: Late INa % blk. (In general: Patch clamp records ionic current or voltage across a cell membrane.)
The target of the next data set is hERG potassium channel (Homo sapiens, UniProt Q12809). Put plainly: hERG screening assay (PatchXpress patch clamp, CHO cell line). Background: The hERG channel carries a current that helps repolarise heart muscle cells.
Chain of hERG potassium channel (Q12809 whole entry): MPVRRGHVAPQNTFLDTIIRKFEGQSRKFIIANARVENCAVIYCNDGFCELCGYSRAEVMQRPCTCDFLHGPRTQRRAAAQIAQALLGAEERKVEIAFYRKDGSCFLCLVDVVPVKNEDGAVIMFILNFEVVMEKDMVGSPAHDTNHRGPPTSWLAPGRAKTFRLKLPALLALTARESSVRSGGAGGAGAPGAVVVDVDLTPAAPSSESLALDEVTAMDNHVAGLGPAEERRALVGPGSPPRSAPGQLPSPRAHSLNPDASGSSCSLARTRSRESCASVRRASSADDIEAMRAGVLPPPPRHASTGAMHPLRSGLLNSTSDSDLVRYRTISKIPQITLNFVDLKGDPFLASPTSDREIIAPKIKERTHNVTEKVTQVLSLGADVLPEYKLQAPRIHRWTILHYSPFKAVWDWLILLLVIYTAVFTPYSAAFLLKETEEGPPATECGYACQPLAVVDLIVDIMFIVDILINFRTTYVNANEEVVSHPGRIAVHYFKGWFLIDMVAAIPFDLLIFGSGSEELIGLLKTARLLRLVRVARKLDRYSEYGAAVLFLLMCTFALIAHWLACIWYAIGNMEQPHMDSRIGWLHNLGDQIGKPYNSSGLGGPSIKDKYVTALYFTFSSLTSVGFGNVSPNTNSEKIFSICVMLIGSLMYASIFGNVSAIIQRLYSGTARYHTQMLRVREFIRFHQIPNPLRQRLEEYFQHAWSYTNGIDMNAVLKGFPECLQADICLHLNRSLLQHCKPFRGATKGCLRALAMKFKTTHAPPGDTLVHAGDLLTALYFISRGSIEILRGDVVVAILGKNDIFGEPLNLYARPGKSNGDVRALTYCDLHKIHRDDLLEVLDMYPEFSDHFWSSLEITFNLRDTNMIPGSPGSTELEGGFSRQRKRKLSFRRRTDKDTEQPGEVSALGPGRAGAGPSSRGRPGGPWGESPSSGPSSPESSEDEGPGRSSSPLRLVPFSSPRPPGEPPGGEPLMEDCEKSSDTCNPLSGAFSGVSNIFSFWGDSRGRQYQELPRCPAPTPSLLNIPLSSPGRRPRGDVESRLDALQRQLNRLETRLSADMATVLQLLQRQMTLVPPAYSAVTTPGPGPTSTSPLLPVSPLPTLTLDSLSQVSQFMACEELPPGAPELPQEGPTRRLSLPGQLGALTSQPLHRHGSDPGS
Where [3] appears, read: tonic block, read-out: Tonic Peak INa % blk.

T1 sequence (Q14524 whole entry): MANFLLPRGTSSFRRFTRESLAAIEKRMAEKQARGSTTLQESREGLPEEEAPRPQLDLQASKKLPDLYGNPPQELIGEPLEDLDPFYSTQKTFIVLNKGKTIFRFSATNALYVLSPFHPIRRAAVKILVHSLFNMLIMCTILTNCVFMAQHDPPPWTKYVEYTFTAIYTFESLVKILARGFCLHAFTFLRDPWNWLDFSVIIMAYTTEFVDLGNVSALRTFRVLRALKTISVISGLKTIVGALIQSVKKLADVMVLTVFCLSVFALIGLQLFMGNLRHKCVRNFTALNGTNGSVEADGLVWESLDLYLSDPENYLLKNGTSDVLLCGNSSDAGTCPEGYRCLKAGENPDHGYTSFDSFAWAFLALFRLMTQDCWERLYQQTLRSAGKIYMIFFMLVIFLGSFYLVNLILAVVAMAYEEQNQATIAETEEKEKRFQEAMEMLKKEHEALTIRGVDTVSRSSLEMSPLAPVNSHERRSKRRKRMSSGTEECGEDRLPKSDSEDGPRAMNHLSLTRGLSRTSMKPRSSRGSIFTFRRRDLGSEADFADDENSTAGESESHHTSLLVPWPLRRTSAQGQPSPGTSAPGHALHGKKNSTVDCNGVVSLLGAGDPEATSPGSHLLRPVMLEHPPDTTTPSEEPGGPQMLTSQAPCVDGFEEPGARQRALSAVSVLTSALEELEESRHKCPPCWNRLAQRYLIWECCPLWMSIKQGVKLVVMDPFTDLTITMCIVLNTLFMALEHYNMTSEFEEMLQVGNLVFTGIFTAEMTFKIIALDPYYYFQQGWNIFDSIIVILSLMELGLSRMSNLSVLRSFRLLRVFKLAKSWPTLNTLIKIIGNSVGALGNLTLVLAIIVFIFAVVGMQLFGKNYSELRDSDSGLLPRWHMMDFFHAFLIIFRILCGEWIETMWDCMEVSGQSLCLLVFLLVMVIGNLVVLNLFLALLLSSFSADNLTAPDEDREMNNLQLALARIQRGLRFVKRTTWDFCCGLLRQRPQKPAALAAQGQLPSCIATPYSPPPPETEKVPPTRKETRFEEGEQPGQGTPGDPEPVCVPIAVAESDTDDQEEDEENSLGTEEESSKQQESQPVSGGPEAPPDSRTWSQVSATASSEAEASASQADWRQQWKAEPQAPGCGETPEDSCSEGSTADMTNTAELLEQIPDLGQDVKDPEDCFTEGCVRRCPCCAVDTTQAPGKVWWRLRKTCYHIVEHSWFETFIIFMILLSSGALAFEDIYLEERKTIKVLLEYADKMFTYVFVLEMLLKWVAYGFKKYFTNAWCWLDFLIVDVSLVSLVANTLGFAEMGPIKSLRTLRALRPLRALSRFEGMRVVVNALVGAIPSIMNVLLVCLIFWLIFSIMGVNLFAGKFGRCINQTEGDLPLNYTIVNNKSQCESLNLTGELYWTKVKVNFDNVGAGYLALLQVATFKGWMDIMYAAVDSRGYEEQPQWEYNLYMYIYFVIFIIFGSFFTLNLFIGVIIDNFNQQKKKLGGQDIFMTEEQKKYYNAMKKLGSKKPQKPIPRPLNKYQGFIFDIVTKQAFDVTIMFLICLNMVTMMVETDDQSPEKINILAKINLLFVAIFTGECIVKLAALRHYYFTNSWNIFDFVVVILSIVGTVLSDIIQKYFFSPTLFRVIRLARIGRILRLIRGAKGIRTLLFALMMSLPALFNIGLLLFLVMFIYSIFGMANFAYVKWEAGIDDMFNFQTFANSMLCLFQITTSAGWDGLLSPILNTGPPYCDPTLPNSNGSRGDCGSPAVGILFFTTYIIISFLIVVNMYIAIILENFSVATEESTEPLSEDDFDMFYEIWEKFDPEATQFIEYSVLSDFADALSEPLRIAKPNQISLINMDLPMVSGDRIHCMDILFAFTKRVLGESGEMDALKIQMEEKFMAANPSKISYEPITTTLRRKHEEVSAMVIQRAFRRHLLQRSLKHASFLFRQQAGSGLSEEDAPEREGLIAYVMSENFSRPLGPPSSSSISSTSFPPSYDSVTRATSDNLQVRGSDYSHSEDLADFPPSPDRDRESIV

With `CC1=C(C(=O)OC(c2ccccc2)C2CC2)C(c2cccc3ccccc23)n2nnnc2N1` (stereo not drawn) [PT-002, cyclopropyl(phenyl)methyl 5-methyl-7-(naphthalen-1-yl)-4,7-dihydrotetrazolo[1,5-a]pyrimidine-6-carboxylate], the values for the inhibition at 10 µM in data set [1] (setting [3]) and in data set [2] were 2.4% and 53.1%, respectively. The results for the “hERG Patch Clamp hERG % blk” value at hERG potassium channel (1 μM) and on hERG potassium channel (10 μM) were 11.5% and 28.0%, respectively.
For `CCOC(=O)C1=C(C)Nc2nnnn2C1c1ccc2ccccc2c1` (stereo not drawn) [PT-008, ethyl 5-methyl-7-(naphthalen-2-yl)-4,7-dihydrotetrazolo[1,5-a]pyrimidine-6-carboxylate], the inhibition at 10 µM in data set [1] (setting [3]) turned out to be 2.1%; in data set [2], 57.2%. In addition, the “hERG Patch Clamp hERG % blk” value at hERG potassium channel (1 μM) turned out to be 10.0%; at hERG potassium channel (10 μM), 33.5%.
As to `CC1=C(C(=O)OCc2ccccc2)C(c2cccc3ccccc23)n2nnnc2N1` (stereo not drawn) [PT-027, benzyl 5-methyl-7-(naphthalen-1-yl)-4,7-dihydrotetrazolo[1,5-a]pyrimidine-6-carboxylate], the inhibition at 10 µM in data set [1] (setting [3]) is 29.7%; in data set [1] (use-dependent block, read-out: UDB Peak INa % blk), 6.8%; in data set [2] it was 74.9%. In addition, the “hERG Patch Clamp hERG % blk” value is recorded as 14.0% on hERG potassium channel (1 μM) and 64.5% on hERG potassium channel (10 μM).
In the case of `CC1=C(C(=O)OCc2ccccc2)C(c2ccc(N(C)C)c3ccccc23)n2nnnc2N1` (stereo not drawn) [PT-032, benzyl 7-(4-(dimethylamino)naphthalen-1-yl)-5-methyl-4,7-dihydrotetrazolo[1,5-a]pyrimidine-6-carboxylate], the inhibition at 10 µM in data set [1] (setting [3]) stood at 11.5%; in data set [2] it was 63.6%. Also, the “hERG Patch Clamp hERG % blk” value at hERG potassium channel (1 μM) was determined as 19.0%; on hERG potassium channel (10 μM), 50.5%.
Turning to `CC1=C(C(=O)OCc2ccccc2)C(c2cccs2)n2nnnc2N1` (stereo not drawn) [PT-040, benzyl 5-methyl-7-(thiophen-2-yl)-4,7-dihydrotetrazolo[1,5-a]pyrimidine-6-carboxylate], the inhibition at 10 µM in data set [1] (setting [3]) worked out at 9.9%; in data set [2], 70.8%. Further, the “hERG Patch Clamp hERG % blk” value at hERG potassium channel (1 μM) is listed as 14.5%; at hERG potassium channel (10 μM), 24.5%.
The matching figures for `CC1=C(C(=O)OCc2ccccc2)C(c2cc3ccccc3o2)n2nnnc2N1` (stereo not drawn) [PT-045, benzyl 7-(benzofuran-2-yl)-5-methyl-4,7-dihydrotetrazolo[1,5-a]pyrimidine-6-carboxylate]: 23.8%, 92%, 10.0% and 70.0%.
The corresponding values for `CC1=C(C(=O)OC2CCc3ccccc32)C(c2cccc3ccccc23)n2nnnc2N1` (stereo not drawn) [PT-062, 2,3-dihydro-1H-inden-1-yl 5-methyl-7-(naphthalen-1-yl)-4,7-dihydrotetrazolo[1,5-a]pyrimidine-6-carboxylate] are 7.9%, 60.2%, 14.0% and 51.0%.
Turning to `CC1=C(C(=O)OC(C)Cc2ccccc2)C(c2cccc3ccccc23)n2nnnc2N1` (stereo not drawn) [PT-064, 1-phenylpropan-2-yl 5-methyl-7-(naphthalen-1-yl)-4,7-dihydrotetrazolo[1,5-a]pyrimidine-6-carboxylate], the figures for the inhibition at 10 µM in data set [1] (setting [3]) and in data set [2] were 7.2% and 79.5%, respectively. The “hERG Patch Clamp hERG % blk” value at hERG potassium channel (1 μM) is on record as 20.5%; at hERG potassium channel (10 μM), 37.5%.
The corresponding values for `N#CC1=C(N)OC2=C(C(=O)CCC2)C1c1ccc(Br)cc1` (stereo not drawn) [PT-096, 2-amino-4-(4-bromophenyl)-5-oxo-5,6,7,8-tetrahydro-4H-chromene-3-carbonitrile] are -0.4%, 5.5%, 15.0% and 48.0%.
The corresponding values for `N#CC1=C(N)OC2=C(C(=O)CCC2)C1c1ccsc1` (stereo not drawn) [PT-100, 2-amino-5-oxo-4-(thiophen-3-yl)-5,6,7,8-tetrahydro-4H-chromene-3-carbonitrile] are 4%, -12.1%, 10.0% and 16.5%.
Turning to `N#CC1=C(N)OC2=C(C(=O)CC(c3ccccc3)C2)C1c1cccs1` (stereo not drawn) [PT-101, 2-amino-5-oxo-7-phenyl-4-(thiophen-2-yl)-5,6,7,8-tetrahydro-4H-chromene-3-carbonitrile], the inhibition at 10 µM in data set [1] (setting [3]) is 2.9%; in data set [2], 49.3%. Besides, the “hERG Patch Clamp hERG % blk” value is 19.0% at hERG potassium channel (1 μM) and 67.5% on hERG potassium channel (10 μM).
For the compound `CCOC(=O)C1=C(C)NC(C)=C(C(=O)OCC)C1c1ccc2ccccc2c1` [PT-107, diethyl 2,6-dimethyl-4-(naphthalen-2-yl)-1,4-dihydropyridine-3,5-dicarboxylate], the inhibition at 10 µM in data set [1] (setting [3]) came to 25.9%; in data set [2], 91.9%. In addition, the “hERG Patch Clamp hERG % blk” value was 11.5% at hERG potassium channel (1 μM) and 48.0% at hERG potassium channel (10 μM).
In the case of `CCOC(=O)C1=C(C)NC(C)=C(C(=O)OCC)C1c1ccc(CC)s1` [PT-113, diethyl 4-(5-ethylthiophen-2-yl)-2,6-dimethyl-1,4-dihydropyridine-3,5-dicarboxylate], the inhibition at 10 µM in data set [1] (setting [3]) is 30.4%; in data set [2] it was 88.6%. In addition, the “hERG Patch Clamp hERG % blk” value at hERG potassium channel (1 μM) came to 11.0%; on hERG potassium channel (10 μM) it was 57.3%.
The matching figures for `CCOC(=O)C1=C(C)NC(C)=C(C(=O)OCC)C1c1cc2ccccc2s1` [PT-114, diethyl 4-(benzo[b]thiophen-2-yl)-2,6-dimethyl-1,4-dihydropyridine-3,5-dicarboxylate]: 13.1%, 85%, 20.9% and 51.5%.
Turning to `CCOC(=O)C1=C(C)NC(C)=C(C(=O)OCC)C1c1csc2ccccc12` [PT-115, diethyl 4-(benzo[b]thiophen-3-yl)-2,6-dimethyl-1,4-dihydropyridine-3,5-dicarboxylate], the inhibition at 10 µM turned out to be 17.2% in data set [1] (setting [3]) and 86% in data set [2]. Besides, at hERG potassium channel (10 μM), the “hERG Patch Clamp hERG % blk” value was 50.3%.
In the case of `CC1=C(C(=O)OC(C)C)C(c2cccc3ccccc23)C(C(=O)OC(C)C)=C(C)N1` [PT-123, diisopropyl 2,6-dimethyl-4-(naphthalen-1-yl)-1,4-dihydropyridine-3,5-dicarboxylate], the inhibition at 10 µM is 7% in data set [1] (setting [3]) and 86.9% in data set [2]. Further, the “hERG Patch Clamp hERG % blk” value at hERG potassium channel (1 μM) was 10.0%; at hERG potassium channel (10 μM) it was 30.5%.
The matching figures for `CC1=C(C(=O)OC(C)C)C(c2ccc(Br)s2)C(C(=O)OC(C)C)=C(C)N1` [PT-124, diisopropyl 4-(5-bromothiophen-2-yl)-2,6-dimethyl-1,4-dihydropyridine-3,5-dicarboxylate]: 58.7%, 86.2%, 11.5% and 66.0%.
The matching figures for `CCOC(=O)C1=C(C)NC2=C(C(=O)CCC2)C1c1ccco1` (stereo not drawn) [PT-153, ethyl 4-(furan-2-yl)-2-methyl-5-oxo-1,4,5,6,7,8-hexahydroquinoline-3-carboxylate]: 1.7%, -5%, 10.5% and 13.5%.
